# How the values were obtained:
# [1] = molecular target: Carboxylic ester hydrolase (Equus caballus, UniProt Q9N1N9); assay: Enzymatic Assay
# Procedure: (§1) AChE or BChE solution (50 μL) and compound solution (50 μL), which is prepared in 2% DMSO at a concentration range of 10^−1-10^−6 mM, were added to 3.0 mL phosphate buffer (pH8 ± 0.1) and incubated at 25°C for 5 min. The reaction was started by adding (DTNB) (50 μL) and ATC (10 μL) to the enzyme-inhibitor mixture. […] As a control, an identical solution of the enzyme without the inhibitor was processed following the same protocol. The blank reading contained 3.0 mL buffer, 50 μL 2% DMSO, 50 μL DTNB and 10 μL substrate. All processes were assayed in triplicate.
# Acetylcholinesterase = Acetylcholinesterase (Electrophorus electricus, UniProt O42275); assay: Enzymatic Assay; conditions: pH 8; 25 °C
# Procedure: as §1
# Sequence of Carboxylic ester hydrolase (Q9N1N9 whole entry): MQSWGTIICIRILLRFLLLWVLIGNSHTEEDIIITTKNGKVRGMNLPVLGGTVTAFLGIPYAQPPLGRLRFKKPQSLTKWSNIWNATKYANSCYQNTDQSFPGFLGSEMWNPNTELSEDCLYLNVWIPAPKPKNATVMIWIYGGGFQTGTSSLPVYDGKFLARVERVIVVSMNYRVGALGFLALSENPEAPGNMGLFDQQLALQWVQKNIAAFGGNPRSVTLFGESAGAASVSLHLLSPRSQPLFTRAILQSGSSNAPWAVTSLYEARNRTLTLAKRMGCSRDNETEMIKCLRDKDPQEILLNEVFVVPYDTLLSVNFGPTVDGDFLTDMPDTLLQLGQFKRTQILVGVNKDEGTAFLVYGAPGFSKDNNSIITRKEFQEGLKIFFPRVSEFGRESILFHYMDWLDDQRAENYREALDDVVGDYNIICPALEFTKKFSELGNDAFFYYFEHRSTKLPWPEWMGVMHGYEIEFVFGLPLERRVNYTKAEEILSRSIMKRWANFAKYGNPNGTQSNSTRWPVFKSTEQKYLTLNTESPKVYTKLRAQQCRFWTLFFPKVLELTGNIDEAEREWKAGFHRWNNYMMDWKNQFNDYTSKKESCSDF
# Sequence of Acetylcholinesterase (O42275 whole entry): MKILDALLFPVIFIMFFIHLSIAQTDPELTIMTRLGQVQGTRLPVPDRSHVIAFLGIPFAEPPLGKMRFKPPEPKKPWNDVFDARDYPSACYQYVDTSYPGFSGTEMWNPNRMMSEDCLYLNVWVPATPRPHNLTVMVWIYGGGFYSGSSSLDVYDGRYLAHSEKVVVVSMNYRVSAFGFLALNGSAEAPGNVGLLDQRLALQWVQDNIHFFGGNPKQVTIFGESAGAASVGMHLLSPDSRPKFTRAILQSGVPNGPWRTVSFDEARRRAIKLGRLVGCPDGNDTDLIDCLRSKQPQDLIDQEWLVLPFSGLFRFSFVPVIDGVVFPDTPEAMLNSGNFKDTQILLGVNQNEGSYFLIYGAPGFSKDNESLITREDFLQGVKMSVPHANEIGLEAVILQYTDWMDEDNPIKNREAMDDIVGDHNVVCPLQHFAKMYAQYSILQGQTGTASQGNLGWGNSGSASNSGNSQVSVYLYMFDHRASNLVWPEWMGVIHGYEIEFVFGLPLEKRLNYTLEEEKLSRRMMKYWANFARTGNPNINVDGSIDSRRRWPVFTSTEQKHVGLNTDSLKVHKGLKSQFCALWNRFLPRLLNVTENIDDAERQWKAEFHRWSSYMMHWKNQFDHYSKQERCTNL
SMILES,IC50 [1] [µM],IC50 (Acetylcholinesterase) [µM]
Cc1nc(-c2ccc(NC(=O)CN3CCN(C4CCCCC4)CC3)cc2)cs1 [2-(4-Cyclohexylpiperazine-1-yl)-N-[4-(2-methylthiazol-4-yl)pheny])acetamide (5c)],> 100,6.34
CCN1CCN(CC(=O)Nc2ccc(-c3csc(C)n3)cc2)CC1 [2-(4-Ethylpiperazine-1-yl)-N-[4-(2-methylthiazol-4-yl)pheny])acetamide (5b)],> 100,11.7
Cc1nc(-c2ccc(NC(=O)CN3CCN(C)CC3)cc2)cs1 [2-(4-Methylpiperazine-1-yl)-N-[4-(2-methylthiazol-4-yl)phenyl]acetamide (5a)],> 100,7.12
Cc1nc(-c2ccc(NC(=O)CN3CCN(c4ccccc4)CC3)cc2)cs1 [2-(4-Phenylpiperazine-1-yl)-N-[4-(2-methylthiazol-4-yl)phenyl]acetamide (5d)],> 100,> 100
Cc1nc(-c2ccc(NC(=O)CN3CCN(Cc4ccccc4)CC3)cc2)cs1 [2-[4-(2-Benzyl)piperazine-1-yl]-N-[4-(2-methylthiazol-4-yl)phenyl]acetamide (5o)],> 100,0.011
Cc1nc(-c2ccc(NC(=O)CN3CCN(C(=O)c4ccco4)CC3)cc2)cs1 [2-[4-(2-Furoyl)piperazine-1-yl]-N-[4-(2-methylthiazol-4-yl)phenyl]acetamide (5p)],> 100,0.27
COc1ccccc1N1CCN(CC(=O)Nc2ccc(-c3csc(C)n3)cc2)CC1 [2-[4-(2-Methoxyphenyl)piperazine-1-yl]-N-[4-(2-methylthiazol-4-yl)phenyl]acetamide (5m)],> 100,8.42
Cc1nc(-c2ccc(NC(=O)CN3CCN(c4ccccc4C)CC3)cc2)cs1 [2-[4-(2-Methylphenyl)piperazine-1-yl]-N-[4-(2-methylthiazol-4-yl)pheny]acetamide (5l)],> 100,> 100
Cc1nc(-c2ccc(NC(=O)CN3CCN(c4ccccn4)CC3)cc2)cs1 [2-[4-(2-Pyridyl)piperazine-1-yl]-N-[4-(2-methylthiazol-4-yl)phenyl]acetamide (5n)],> 100,0.051
COc1cccc(N2CCN(CC(=O)Nc3ccc(-c4csc(C)n4)cc3)CC2)c1 [2-[4-(3-Methoxyphenyl)piperazine-1-yl]-N-[4-(2-methylthiazol-4-yl)phenyl]acetamide (5k)],> 100,> 100
Cc1cccc(N2CCN(CC(=O)Nc3ccc(-c4csc(C)n4)cc3)CC2)c1 [2-[4-(3-Methylphenyl)piperazine-1-yl]-N-[4-(2-methylthiazol-4-yl)phenyl]acetamide (5j)],> 100,88.4
Cc1nc(-c2ccc(NC(=O)CN3CCN(c4ccc(Cl)cc4)CC3)cc2)cs1 [2-[4-(4-Chlorophenyl)piperazine-1-yl]-N-[4-(2-methylthiazol-4-yl)phenyl]acetamide (5g)],> 100,> 100
Cc1nc(-c2ccc(NC(=O)CN3CCN(c4ccc(F)cc4)CC3)cc2)cs1 [2-[4-(4-Florophenyl)piperazine-1-yl]-4-[4-(2-methylthiazol-4-yl)phenyl]acetamide (5h)],> 100,> 100
COc1ccc(N2CCN(CC(=O)Nc3ccc(-c4csc(C)n4)cc3)CC2)cc1 [2-[4-(4-Methoxyphenyl)piperazine-1-yl]-N-[4-(2-methylthiazol-4-yl)phenyl]acetamide (5f)],> 100,> 100
Cc1ccc(N2CCN(CC(=O)Nc3ccc(-c4csc(C)n4)cc3)CC2)cc1 [2-[4-(4-Methylphenyl)piperazine-1-yl]-N-[4-(2-methylthiazol-4-yl)phenyl]acetamide (5e)],> 100,> 100
Cc1nc(-c2ccc(NC(=O)CN3CCN(c4ccc([N+](=O)[O-])cc4)CC3)cc2)cs1 [2-[4-(4-Nitrophenyl)piperazine-1-yl]-N-[4-(2-methylthiazol-4-yl)pheny]acetamide (5i)],> 100,> 100
